# Read-outs that look alike come from different tables or passages of the source.
# Columns and labels:
# [1] = system: Jurkat cells; assay: cells; settings: Homo sapiens, 72 h
# [2] = system: TBK1; settings: read-out: IC50 TBK1; ref J.Med. Chem. (2011) 54:2:635; cited from earlier work
# [3] = system: Cdc37 phosphoserine 13
# [4] = system: AKT1 phosphoserine 129
# [5] = system: CLK1; settings: read-out: IC50 CLK1; ref PLOS ONE (2014) 9:4; cited from earlier work
# [6] = system: CLK3; settings: read-out: IC50 CLK3; ref J.Med. Chem. (2011) 54:2:635; cited from earlier work
# [7] = system: PIM1; settings: read-out: IC50 PIM1; ref J.Med. Chem. (2011) 54:2:635; cited from earlier work
# [8] = system: HCT116 cells; assay: cells; settings: Homo sapiens, HCT-116, 72 h
# [9] = system: PIM2; settings: read-out: IC50 PIM2; ref Biorg. Med. Chem. Lett. (2011) 21;22;6687; cited from earlier work
# [10] = system: A549 cells; assay: cells; settings: Homo sapiens, A549, 72 h
# [11] = system: PIM1; settings: read-out: IC50 PIM1; ref Biorg. Med. Chem. Lett. (2011) 21;22;6687; cited from earlier work
# [12] = system: CLK3; settings: read-out: IC50 CLK3; ref PLOS ONE (2014) 9:4; cited from earlier work
# [13] = system: FLT3; settings: read-out: IC50 FLT3; ref J.Med. Chem. (2011) 54:2:635; cited from earlier work
# [14] = system: HIPK3; settings: read-out: IC50 HIPK3; ref J.Med. Chem. (2011) 54:2:635; cited from earlier work
# [15] = system: HCT116 cells; settings: 72 hours
# [16] = system: DAPK3; settings: read-out: IC50 DAPK3; ref J.Med. Chem. (2011) 54:2:635; cited from earlier work
# [17] = system: CDK2/Cyclin E; settings: read-out: IC50 CDK2/Cyclin E; ref Eur. J. Med. Chem. (2014) 78:217-224; cited from earlier work
# [18] = system: CDK1/Cyclin B; settings: read-out: IC50 CDK1/Cyclin B; ref J.Med. Chem. (2011) 54:2:635; cited from earlier work
# [19] = system: A549 cells; settings: 72 hours
# [20] = system: 238 kinases; settings: cited from earlier work
# [21] = system: CK2α; settings: read-out: IC50 CK2α; ref J.Med. Chem. (2011) 54:2:635; cited from earlier work
# [22] = system: Jurkat cells; settings: 72 hours
# [23] = system: 102 kinases; settings: cited from earlier work
# [24] = biological target: CK2α (Homo sapiens, UniProt P68400); settings: for ΔH / ΔS: ITC
# [25] = system: HCT116, Jurkat and A549 cells; settings: A549 vs IC50 (for pro-CAM4066: IC50 of CAM4066)
# [26] = HCT116, 2 × GI50, all time points (24, 48, 72 hours)
# Sequence of CK2α (P68400 2-329): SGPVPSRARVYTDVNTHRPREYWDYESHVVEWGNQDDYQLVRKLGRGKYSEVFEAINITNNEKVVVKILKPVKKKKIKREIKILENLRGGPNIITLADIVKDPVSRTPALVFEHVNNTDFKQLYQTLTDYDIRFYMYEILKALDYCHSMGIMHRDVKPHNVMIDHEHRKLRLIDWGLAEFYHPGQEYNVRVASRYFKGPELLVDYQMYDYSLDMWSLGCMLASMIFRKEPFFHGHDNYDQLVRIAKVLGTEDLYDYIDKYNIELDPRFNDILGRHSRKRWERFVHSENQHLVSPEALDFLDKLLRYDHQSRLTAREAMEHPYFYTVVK
smiles,measurement,setting,value
O=C(O)c1ccc2c(c1)nc(Nc1cccc(Cl)c1)c1ccncc12 [CX4945],GI50,[1],5000 nM
same,IC50,[2],35 nM
same,inhibition of the phosphorylation of CDC37 Ser13,"[3]; HCT116, 2 × GI50, 24 hours",reduced inhibition
same,inhibition of the phosphorylation of CDC37 Ser13,[3]; [26],very clear inhibition
same,inhibition of the phosphorylation of AKT1 Ser129,[4]; [26],very clear inhibition
same,IC50,[5],82 nM
same,IC50,[6],41 nM
same,IC50,[7],46 nM
same,GI50,[8],4800 nM
same,IC50,[9],186 nM
same,GI50,[10],17000 nM
same,IC50,[11],48 nM
same,IC50,[12],90 nM
same,IC50,[13],55 nM
same,IC50,[14],45 nM
same,GI50,[15],5000 nM
same,IC50,[16],17 nM
same,IC50,[17],1800 nM
same,IC50,[18],56 nM
same,GI50,[19],16600 nM
same,number of other kinases inhibited by 70% or greater,"[20]; 0.5 μM, screen size 238 kinases",26
same,number of other kinases inhibited with nanomolar IC50 values,[20],at least twelve
same,GI50,[22],4700 nM
O=C(O)c1ccc2c(c1)nc(Nc1cccc(C(F)(F)F)c1)c1nc(NC3CC3)ncc12 [CX5279],number of other kinases inhibited by 70% or greater,"[23]; 0.5 μM, 102 kinases",4
same,Gini coefficient,[23]; larger literature panel,0.755
CCCOc1ccc(CN)cc1Cl.Cl [compound 3],ΔH,[24],-5.047 kcal/mol
same,ΔS,[24],-2.28 cal/mol/deg
Cc1ccc(O)c(C(=O)O)c1 [compound 5],ΔH,[24],-7.722 kcal/mol
same,ΔS,[24],-6.51 cal/mol/deg
Nc1cccc(C(=O)O)c1 [compound 6],detectable binding by ITC,[24],no inhibition of phosphorylation at 500 μM or detectable binding by ITC
COC(=O)c1cccc(NC(=O)CCNC(=O)CCNCc2ccc(-c3ccccc3)c(Cl)c2)c1 [pro-CAM4066],GI50,[1],6000 nM
same,inhibition of the phosphorylation of CDC37 Ser13,"[3]; HCT116, 2 × GI50, 48 and 72 hours",the inhibition did increase
same,inhibition of the phosphorylation of CDC37 Ser13,"[3]; HCT116, 2 × GI50, 24 hours",no inhibition
same,inhibition of the phosphorylation of AKT1 Ser129,"[4]; HCT116, 2 × GI50, 24 hours",approximately 50%
same,GI50,[8],9000 nM
same,GI50,[10],20000 nM
same,GI50,[15],8800 nM
same,GI50,[19]; listed as 8,20200 nM
same,drop-off in the GI50 compared to the IC50,[25],19-60 fold
same,GI50,[22]; listed as 8,6300 nM
